How the values were obtained:
[1] = tested on: phosphorylation of ERK, KRAS G12V in SW620; experiment: pERK inhibition assay, KRAS G12V; type: cell-based, human; details: Homo sapiens, SW-620, SW620, 4 hours
How it was run: (§1)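 Plate cells, attach overnight; add compound (0.5% DMSO) for 4 h; fix in 4% formaldehyde, permeabilize with chilled methanol; block; incubate pERK antibody overnight at 4 °C, then HRP secondary; develop with TMB, stop, read OD450; fit 4-parameter curve for IC50.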

KRAS G12C-BRAF complex [2] = target: T1, KRAS G12C-BRAF complex (Homo sapiens (Human), UniProt P01116+P62937, G12C); experiment: KRAS-BRAF with CYPA (500 nM) interaction assay (TR-FRET), G12C; type: biochemical
T1 sequence (P01116-2 other isoform, or with tags, fused parts or gaps G12C): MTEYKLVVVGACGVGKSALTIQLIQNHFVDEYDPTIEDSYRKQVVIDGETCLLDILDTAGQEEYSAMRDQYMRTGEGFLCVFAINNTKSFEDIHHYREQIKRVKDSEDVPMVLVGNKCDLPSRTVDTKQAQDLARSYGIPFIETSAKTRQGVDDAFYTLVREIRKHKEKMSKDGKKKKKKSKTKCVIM
T1 sequence (P62937 whole entry): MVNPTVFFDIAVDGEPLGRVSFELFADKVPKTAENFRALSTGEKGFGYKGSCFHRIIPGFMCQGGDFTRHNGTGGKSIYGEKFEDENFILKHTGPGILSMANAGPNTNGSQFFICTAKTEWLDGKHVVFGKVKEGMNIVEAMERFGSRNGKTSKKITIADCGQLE

[3] = target: KRAS G12V binding to BRAF (Homo sapiens (Human), UniProt P01116+P62937, G12V); experiment: KRAS-BRAF with CYPA (500 nM) interaction assay (TR-FRET), G12V; type: biochemical
Sequence of KRAS G12V binding to BRAF (P01116-2 other isoform, or with tags, fused parts or gaps G12V): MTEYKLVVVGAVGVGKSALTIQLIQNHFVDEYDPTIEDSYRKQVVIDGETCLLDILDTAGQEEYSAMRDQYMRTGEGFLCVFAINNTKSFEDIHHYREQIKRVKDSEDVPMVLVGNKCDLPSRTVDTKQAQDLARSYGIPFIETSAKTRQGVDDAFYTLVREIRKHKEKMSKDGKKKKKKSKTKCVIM
Sequence of KRAS G12V binding to BRAF (P62937 whole entry): as the sequence (P62937 whole entry) above
How it was run: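 A TR-FRET assay measured how compound, in the presence of CYPA, disrupts binding of GMPPNP-loaded 6His-KRAS G12V to BRAF. The buffer contained 25 mM HEPES PH=7.4, 0.002% Tween20, 0.1% BSA, 100 mM NaCl, 5 mM MgCl2 and 10 μM GMPPNP. Compounds ran as a 16-point 3-fold dilution series from 10 μM for 3 hours.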

[4] = tested on: phosphorylation of ERK, KRAS G12D in AGS cells; experiment: pERK inhibition assay, KRAS G12D; type: cell-based, human; details: Homo sapiens, 4 hours
Method: This assay is to measure the ability of test compounds in inhibiting the phosphorylation of ERK, the downstream signaling of KRAS G12C in NCJ-H358 cells, KRAS G12D in AGS cells, and KRAS G12V in SW620. NCJ-H358 (ATCC-CRL5807) cells, AGS (ATCC-CRL-1739) cells, SW620 (ATCC-CCL-227) cells were all grown and maintained using RPMI-1640 medium (Thermo Fisher Scientific) with 10% fetal bovine serum and 1% penicillin/streptomycin. On the day prior to compound addition, cells were plated in tissue culture-treated 96 well plates (Corning-3699) at a density of 30,000 cell/well, 20,000 cell/well, 30,000 cell/well for NCJ-H358, AGS and SW620 respectively, and allowed for attachment overnight. Diluted compounds were then added in a final concentration of 0.5% DMSO. After 4 hours of incubation, the medium was removed, 100 μL of 4% formaldehyde was added, and the assay plates were incubated at room temperature for 20 minutes. The plates were then washed once with phosphate buffered saline (PBS), and permeabilized with 100 μL of chilled methanol for 10 minutes. Non-specific antibody binding to the plates was blocked using 50 μL 1×BSA blocking buffer (Thermo-37520, 10-fold dilution by Phosphate-Buffered Saline Tween (PBST) for at least 1 hour at room temperature.
The amount of phosphor-ERK was determined using an antibody specific for phosphorylated form of ERK. Primary antibody (pERK, CST-4370, Cell Signaling Technology) was diluted 1:300 in blocking buffer, with 50 μL aliquoted to each well, and incubated overnight at 4′° C. Cells was washed five times for 5 minutes with PBST. Secondary antibody ([…] anti-rabbit IgG, CST-7074, Cell Signaling Technology) was diluted 1:1000 in blocking buffer, and 50 μL was added to each well and incubated 1-2 hrs at room temperature. Cells was washed 5 times for 5 minutes with PBST, 100 μL TMB ELISA substrate (abcam-ab171523) were added and gently shake for 20 minutes. 50 μL stop solution (abcam-ab171529) were added, and then read the signal (OD450) by EnVision.
IC50 was determined by fitting a 4-parameter sigmoidal concentration response model.

[5] = target: KRAS G12D binding to BRAF (Homo sapiens (Human), UniProt P01116+P62937, G12D); experiment: KRAS-BRAF with CYPA (500 nM) interaction assay (TR-FRET), G12D; type: biochemical
Sequence of KRAS G12D binding to BRAF (P01116-2 other isoform, or with tags, fused parts or gaps G12D): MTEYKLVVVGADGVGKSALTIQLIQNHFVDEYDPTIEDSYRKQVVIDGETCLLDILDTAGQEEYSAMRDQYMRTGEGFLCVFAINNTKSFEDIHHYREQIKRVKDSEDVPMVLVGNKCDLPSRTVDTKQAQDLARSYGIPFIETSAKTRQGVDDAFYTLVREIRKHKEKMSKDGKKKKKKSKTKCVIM
Sequence of KRAS G12D binding to BRAF (P62937 whole entry): as the sequence (P62937 whole entry) above

[6] = tested on: NCI-H358 (ATCC-CRL5807) cells; experiment: Cell viability assay, G12C (NCI-H358); type: cell-based, human; details: Homo sapiens; KRAS cell viability, NCI-H358, 72 hrs, Cell Counting Kit-8
How it was run: (§2)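 Seed NCI-H358 5,000/well, AGS and SW620 2,000/well; overnight. Compound, 0.5% DMSO final, 72 hrs. CCK-8 2 hrs, OD450–OD650. IC50: 4-parameter fit.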

[7] = tested on: AGS (ATCC-CRL-1739) cells; experiment: Cell viability assay, G12D (AGS); type: cell-based, human; details: Homo sapiens, KRAS cell viability, 72 hrs, Cell Counting Kit-8
How it was run: as §2

[8] = tested on: phosphorylation of ERK, KRAS G12C in NCJ-H358 cells; experiment: pERK inhibition assay, KRAS G12C; type: cell-based, human; details: Homo sapiens, 4 hours
How it was run: as §1

SW620 (ATCC-CCL-227) = experiment: Cell viability assay, G12V (SW620); type: cell-based, human; details: Homo sapiens, SW-620; KRAS cell viability, SW620, 72 hrs, Cell Counting Kit-8
How it was run: as §2

KRAS G12C-BRAF complex [9] = target: T1, KRAS G12C-BRAF complex; experiment: KRAS G12C-BRAF NanoBit assay; type: cell-based; details: HEK293 cells, 3 hours of incubation
Method: This assay is to measure the ability of tested compounds in disruption of the KRAS G12C-BRAF complex at the cellular level, we established the NanoBit cellular assay in mammalian HEK293 (ATCC) cells.
HEK293 cells were grown and maintained using DMEM medium (Thermo Fisher Scientific) with 10% fetal bovine serum and 1% penicillin/streptomycin. Both KRAS G12C and BRAF RBD were cloned into the NanoBit vectors ([…] vectors system, Promega) with the orientations SnmBit-KRAS G12C and BRAF RBD-LgBit, respectively, and co-transfected into HEK293 cells. Cells were then selected with 100 μg/mL Hygromycin B (10687010, Thermo Fisher) and Blasticidin (5 μg/mL) for 4 weeks to get the stable cell pool.
On the day of the assay, 75 nL of compound solution was presented in a 384-well assay plate as a 16-point 3-fold dilution starting from a final concentration of 30 μM in DMSO. Then cells were seeded at 10,000 cells/25 μL/well in a 384-well plate. After 3 hours of incubation, 6 μL of volume of Nano-Glo® Live Cell Substrate (Promega) was added into each well. Monitor luminescence using ultra384 model in Envision at 20 minutes. Compounds that facilitate disruption of the KRAS G12C-BRAF RBD complex were identified as those eliciting a decrease of luminescence relative to DMSO control wells.

Row | IC50 (KRAS G12C-BRAF complex [9]) [nM] | SMILES | IC50 [1] [nM] | IC50 (KRAS G12C-BRAF complex [2]) [nM] | IC50 [3] [nM] | IC50 [4] [nM] | IC50 [5] [µM] | IC50 [6] [nM] | IC50 [7] [nM] | IC50 [8] [nM] | IC50 (SW620 (ATCC-CCL-227)) [nM]
1 |  | CCn1c(-c2cc(N3CCN(C)CC3)cnc2[C@H](C)OC)c2c3cc(c(F)cc31)-c1csc(n1)C[C@H](NC(=O)[C@H](C(C)C)N1CC[C@@]3(CCN(C(=O)[C@H](F)Cl)C3)C1=O)C(=O)N1CCC[C@H](N1)C(=O)OCC(C)(C)C2 (atropisomer, axis not shown; (M)) [Example 30, (2S)-2-[(5R)-7-[(2R)-2-chloro-2-fluoro-acetyl]-1-oxo-2,7-diazaspiro[4.4]nonan-2-yl]-N-[(7S,13S)-21-ethyl-24-fluoro-(20M)-20-[2-[(1S)-1-methoxyethyl]-5-(4-methylpiperazin-1-yl)-3-pyridyl]-17,17-dimethyl-8,14-dioxo-15-oxa-4-thia-9,21,27,28-tetrazapentacyclo[17.5.2.1^2,5.1^9,13.0^22,26]octacosa-1(25),2,5(28),19,22(26),23-hexaen-7-yl]-3-methyl-butanamide] | 100 | 38 | > 10000 | 21 | > 10 | < 1 | 435 | 2 | 1050
2 | 27 | CO[C@@H](C)c1ncc(N2CCN(C)CC2)cc1-c1c2c3cc(c(F)cc3n1CC(F)(F)F)-c1csc(n1)C[C@H](NC(=O)[C@@H](COC1CN(C(=O)[C@H](F)Cl)C1)C(C)C)C(=O)N1CCC[C@H](N1)C(=O)OCC(C)(C)C2 (atropisomer, axis not shown; (M)) [Example 13, (2R)-2-[[1-[(2R)-2-chloro-2-fluoro-acetyl]azetidin-3-yl]oxymethyl]-N-[(7S,13S)-24-fluoro-(20M)-20-[2-[(1S)-1-methoxyethyl]-5-(4-methylpiperazin-1-yl)-3-pyridyl]-17,17-dimethyl-8,14-dioxo-21-(2,2,2-trifluoroethyl)-15-oxa-4-thia-9,21,27,28-tetrazapentacyclo-[17.5.2.1^2,5.1^9,13.0^22,26]octacosa-1(25),2,5(28),19,22(26),23-hexaen-7-yl]-3-methyl-butanamide] |  |  |  |  |  | 2 | 2390 |  | 23
3 |  | CO[C@@H](C)c1ncc(N2CCN(CC(F)(F)F)CC2)cc1-c1c2c3cc(c(F)cc3n1CC(F)(F)F)-c1csc(n1)C[C@H](NC(=O)[C@H](C(C)C)N1CCC3(CN(C(=O)[C@H](F)Cl)C3)C1=O)C(=O)N1CCC[C@H](N1)C(=O)OCC(C)(C)C2 (atropisomer, axis not shown; (M)) [Example 46, (2S)-2-[2-[(2R)-2-chloro-2-fluoro-acetyl]-5-oxo-2,6-diazaspiro[3.4]octan-6-yl]-N-[(7S,13S)-24-fluoro-(20M)-20-[2-[(1S)-1-methoxyethyl]-5-[4-(2,2,2-trifluoroethyl)piperazin-1-yl]-3-pyridyl]-17,17-dimethyl-8,14-dioxo-21-(2,2,2-trifluoroethyl)-15-oxa-4-thia-9,21,27,28-tetrazapentacyclo[17.5.2.1^2,5.1^9,13.0^22,26]octacosa-1(25),2,5(28),19,22(26),23-hexaen-7-yl]-3-methyl-butanamide] | 627 | 129 | 1230 | 299 | 1.06 | 3 | 300 | 9 | 168
4 | 106 | CO[C@@H](C)c1ncc(N2CCN(C)CC2)cc1-c1c2c3cc(c(F)cc3n1CC(F)(F)F)-c1csc(n1)C[C@H](NC(=O)[C@H](COC1CN(C(=O)[C@H](F)Cl)C1)C(C)C)C(=O)N1CCC[C@H](N1)C(=O)OCC(C)(C)C2 (atropisomer, axis not shown; (M)) [Example 14, (2S)-2-[[1-[(2R)-2-chloro-2-fluoro-acetyl]azetidin-3-yl]oxymethyl]-N-[(7S,13S)-24-fluoro-(20M)-20-[2-[(1S)-1-methoxyethyl]-5-(4-methylpiperazin-1-yl)-3-pyridyl]-17,17-dimethyl-8,14-dioxo-21-(2,2,2-trifluoroethyl)-15-oxa-4-thia-9,21,27,28-tetrazapentacyclo[17.5.2.1^2,5.1^9,13.0^22,26]octacosa-1(25),2,5(28),19,22(26),23-hexaen-7-yl]-3-methyl-butanamide] | 78 |  |  | 170 |  |  |  | 33 | 
5 |  | CO[C@@H](C)c1ncc(N2CCN(C)CC2)cc1-c1c2c3cc(c(F)cc3n1CC(F)(F)F)-c1csc(n1)C[C@H](NC(=O)[C@H](C(C)C)N(C)C(=O)[C@H]1CCN(C(=O)[C@H](F)Cl)C1)C(=O)N1CCC[C@H](N1)C(=O)OCC(C)(C)C2 (atropisomer, axis not shown; (M)) [Example 2, (3S)-1-[(2R)-2-chloro-2-fluoro-acetyl]-N-[(1S)-1-[[(7S,13S)-24-fluoro-(20M)-20-[2-[(1S)-1-methoxyethyl]-5-(4-methylpiperazin-1-yl)-3-pyridyl]-17,17-dimethyl-8,14-dioxo-21-(2,2,2-trifluoroethyl)-15-oxa-4-thia-9,21,27,28-tetrazapentacyclo[17.5.2.1^2,5.1^9,13.0^22,26]octacosa-1(25),2,5(28),19,22(26),23-hexaen-7-yl]carbamoyl]-2-methyl-propyl]-N-methyl-pyrrolidine-3-carboxamide] | 20 | 89 | 1860 | 38 | 3.98 | 2 | 822 | 2 | 175
